According to US20240368241A1, “SYNDECAN PEPTIDES” (Queen Mary University of London, priority 2021, published 2024):
Entries after “also recorded” stand apart in the source; their conditions may differ.

Assays:
murine choroid explants = test: Ex-vivo angiogenic sprouting assay, murine choroid explants; type: cell-based, mouse; details: 0.5 μM peptide, 30 ng/ml VEGF, Collagen I matrix
Description: FIG. 7: QM111T inhibits choroidal neovascularization. Murine choroid explants were embedded in a Collagen I matrix and supplemented with 30 ng/ml VEGF and either 0.5 μM of QM111, QM111T, QM107 or a combination.
Thoracic aortas were dissected from either male wistar rats (˜200 g) or 4-5 week old male C57BL6J mice (both obtained from Charles River, UK). The fat surrounding the aortas was removed as were any branches and the tissue sliced into <1 mm rings. Choroid membranes explants were isolated from 21 to 28 day old male C57BL6J mice. Eyes were punctured with scissors and the iris/cornea/lens and retina removed. The resultant Choroid was then cut into 1 mm3 chunks. After dissection both aortic rings and choroid explants were incubated overnight at 37° C. in Opti-MEM (Thermo Fisher Scientific) prior to embedding on ice in 0.15 ml of 1 mg/ml Collagen I (Millipore) in E4 medium (Thermo Fisher Scientific) in 48 well plates (Corning). After 30 mins incubation at 37° C., to set the Collagen, wells were supplemented with 200 ul Opti-MEM with 1% FBS. For rat aortic rings 10 ng/ml of […] (R and D Systems) was added, for mouse aortic and choroid explants 30 ng/ml was used. Treatments at the concentrations indicated were also added to this and media replenished every 3 days. Angiogenic sprouts from explants were counted after 7 days and expressed as sprouts/ring or explant.

HUVECs = test: Scratch wound cell migration assay; type: cell-based, human; details: synthetic peptides alone or in combination
Description: FIG. 2. Miniaturization strategy to identify minimum peptide sequence for inhibition of angiogenesis. Schematic diagram showing the series of deletion mutants generated to ascertain the anti-angiogenic peptide sequence contained in syndecan-3 (A). Purified GST fusion proteins were used at a concentration of 0.5 μM in scratch wound migration assays using confluent monolayers of HUEVCs. Wound closure was measured after 7 hours. In this way we identified that the antiangiogenic properties of Syndecan-3 reside between P195 and A221 of the protein.
FIG. 3. […] Comparison of the antiangiogenic sequences in the murine and human forms of syndecan-3 (A). Amino acids which are different are highlighted in yellow. Scratch wound cell migration assays comparing the anti-migratory effects of QM107, QM111 and QM111M on HUVECS (B). […]
Confluent monolayers of HUVECs were scratched with a pipette tip, cells were then washed twice with PBS prior to the addition of growth medium supplemented with either GST fusion proteins or peptide treatments. Wounds were monitored by time lapse microscopy using an Olympus IX81 Microscope Hamamatsu Orca ER digital camera. Regions of interests in the scratch area were recorded using Cell^M software (Olympus) and micrographs of ROIs taken every 30 min for 16 hours with an Olympus IX81 inverted microscope. The initial and final gap was measured using ImageJ software (NIH).

[1] = tested on: pathological retinal neovascularisation (preretinal tufts); test: Oxygen-induced retinopathy (OIR) mouse model; type: in vivo; details: mouse pups, 0.5 μM QM111 injected into eye on return to normoxia vs PBS eye, analysed at P17
Description: FIG. 5. […] Data from an oxygen-induced model of retinopathy study. In this study. OIR was generated by exposing mice pups to 75% oxygen for 5 days from P7-P12. On P13, mice are injected with PBS (left eye) and 0.5 μM QM111 (right eye). They were then placed into 20% oxygen from P13-P17 where they underwent hypoxia. which led to neovascularisation taking place. OIR samples were collected at P17 and retinal structures were stained with isolectin GS-IB4. Neovascularisation was quantified by measuring the total areas where preretinal tufts were present. […] Data is from 8 mice.
Neonatal mice (both male and female) at P7 were exposed to 75% oxygen for 5 days with their nursing mothers. At P12, they were returned to normoxia. Animals were euthanized at P12 to determine the area of vaso-obliteration or at P17 to determine the rate of retinal revascularization and pre-retinal neovascularization. […] Sub retinal injections of the treatments described and controls was administered at day P12 upon return to normoxic conditions. Analysis of retinal vasculature was done as previously described. […] Pre-retinal neovascular tufts were readily distinguished from the superficial vascular plexus by focusing just above the inner limiting membrane. Areas of vascular obliteration and pathological neovascularization (neovascular tufts) were quantified using Adobe Photoshop CS3. […]

rat aortic rings = test: Ex-vivo angiogenic sprouting assay, rat aortic rings; type: cell-based; details: peptides 0.5 μM alone or in combination, n=30-31 rings/condition
Description: FIG. 1. […] Schematic diagram showing the GST fusion protein consisting of GST fused at the N-terminus of the complete coding sequence of the murine Syndecan-3 extracellular core protein. This protein was expressed and purified from bacteria and was tested in the rat aortic ring angiogenic sprouting assay. Aortas were dissected from rats before being sliced into 1 mm wide rings. They are then embedded in collagen I with 0.5 μM of either GST or S3ED purified fusion proteins. 10 ng/ml of VEGF-A was then added into feeding media to encourage angiogenesis. After 7 days, angiogenic sprouts were counted. Images were captured on day 7 using a Hamamatsu Orca ER digital camera and processed using Cell M software. Data is from at least 10 rings per condition from 8 […]. (A) Phase contrast micrographs of aortic rings after 7 days. (B) Graph showing the number of sprouts formed after 7 days (*** p≤0.005).
FIG. 4. […] Comparison of the antiangiogenic sequences in the murine and human forms of syndecan-3 (A). Amino acids which are different are highlighted in yellow. Rat aortic rings where treated with 0.5 μM of either QM107, QM111, QM111M or in combination. […]
Thoracic aortas were dissected from either male wistar rats (˜200 g) or 4-5 week old male C57BL6J mice (both obtained from Charles River, UK). […] Angiogenic sprouts from explants were counted after 7 days and expressed as sprouts/ring or explant.

Row | Substance | angiogenic sprouting from murine choroid explants (murine choroid explants) | endothelial cell (HUVEC) migration in scratch wound assay (HUVECs) | pathological neovascularisation (area of preretinal tufts) in oxygen-induced retinopathy [1] | angiogenic sprout formation from rat aortic rings (rat aortic rings)
1 | LPLPLTTVA (listed as Homo sapiens) [QM111T] | inhibited angiogenesis to the same degree as QM111 and QM107 | – | – | –
2 | PPFTATT AVIRTTGVRR LLPLPLTTVA (PPFTATTAVIRTTGVRRLLPLPLTTVA; listed as Homo sapiens) [QM111, human syndecan-3 peptide corresponding to the anti-angiogenic region] | – | inhibited endothelial cell migration to the same degree | reduced pathological angiogenesis; also recorded: blocks pathological neovascularization | inhibited to a similar degree
3 | QM111M: mouse peptide, 27 amino acids of the anti-angiogenic region (P195-A221) of murine syndecan-3 (PPATATVADVRTTGIQGMLPLPLTTAA; UniProt Q64519 195-221, looked up, fragment) | – | inhibited endothelial cell migration to the same degree | – | inhibited to a similar degree
